Common to all, as to format: cell-based
One assay relates to COLO 205. The assay can be described thus: Cell proliferation assay, Alamar Blue, COLO 205. The settings on record: Homo sapiens; COLO 205 cells, anti-proliferative. As for the experimental part:
(§1) A representative cell-proliferation assay protocol using Alamar Blue dye (stored at 4° C., use 20 ul per well) is described hereafter.
(§2) c. Plate 4,000-5,000 cells per well in 100 μl of medium and seed into a 96-well plate according to the following plate layout. Add cell culture medium only to wells B10 to B12. Wells B1 to B9 have cells but no compound added.
(§3) d. Add 100 μl of 2× drug dilution to each well in a concentration shown in the plate layout above. At the same time, add 100 μl of media into the control wells (wells B10 to B12). Total volume is 200 μl/well.
(§4) e. Incubate four (4) days at 37° C., 5% CO2 in a humidified incubator.
(§5) f. Add 20 μl Alamar Blue reagent to each well.
(§6) g. Incubate for four (4) hours at 37° C., 5% CO2 in a humidified incubator.
(§7) h. Record fluorescence at an excitation wavelength of 544 nm and emission wavelength of 590 nm using a microplate reader.
(§8) In the assays, cells are cultured with a test compound for approximately four days, the dye then is added to the cells and fluorescence of […] dye is detected after approximately four hours. Different types of cells can be utilized in the assays (e.g., HCT-116 human colorectal carcinoma cells, PC-3 human prostatic cancer cells and MiaPaca human pancreatic carcinoma cells). Anti-proliferative effects of representative compounds are provided hereafter.
On the technique in general: Resazurin is reduced to fluorescent resorufin, in cell work by metabolically active cells.

The next assay deals with A375. The assay can be described thus: Cell proliferation assay, Alamar Blue, A375. The settings on record: Homo sapiens, A-375; A375 cells, anti-proliferative. As for the experimental part: as §1, §2, §3, §4, §5, §6, §7, §8
The test system of another assay is SK-OV-3. The assay can be described thus: Cell proliferation assay, Alamar Blue, SK-OV-3. Particulars: Homo sapiens; SK-OV-3 cells, anti-proliferative. As for the experimental part:
as §1, §2, §3, §4, §5, §6, §7, §8

For a further assay, the system named is H460. The assay can be described thus: Cell proliferation assay, Alamar Blue, H460. Particulars: Homo sapiens, NCI-H460; H460 cells, anti-proliferative. As for the experimental part: as §1, §2, §3, §4, §5, §6, §7, §8
In another assay the test system is PanC1. The assay can be described thus: Cell proliferation assay, Alamar Blue, PanC1. Particulars: Homo sapiens, PANC-1; PanC1 cells, anti-proliferative; read-out: IC50 (uM) PanC1. The method, then: as §1, §2, §3, §4, §5, §6, §7, §8
In the next assay the test system is MDAMB231. The assay can be described thus: Cell proliferation assay, Alamar Blue, MDAMB231. The settings on record: Homo sapiens, MDA-MB-231; MDAMB231 cells, anti-proliferative. The method, then:
as §1, §2, §3, §4, §5, §6, §7, §8

The next assay has as its system HL-60. The assay can be described thus: Cell proliferation assay, Alamar Blue, HL-60. Particulars: Homo sapiens; HL-60 cells, anti-proliferative. The method, then: as §1, §2, §3, §4, §5, §6, §7, §8
The test system of a further assay is MCF-7. The assay can be described thus: Cell proliferation assay, Alamar Blue, MCF-7. The settings on record: Homo sapiens, MCF7; MCF-7 cells, anti-proliferative. As for the experimental part:
as §1, §2, §3, §4, §5, §6, §7, §8

The next assay deals with Raji. The assay can be described thus: Cell proliferation assay, Alamar Blue, Raji. The settings on record: Homo sapiens; Raji cells, anti-proliferative. As for the experimental part:
as §1, §2, §3, §4, §5, §6, §7, §8

In the next assay the test system is LNCaP. The assay can be described thus: Cell proliferation assay, Alamar Blue, LNCaP. The settings on record: Homo sapiens; LNCaP cells, anti-proliferative. The method, then: as §1, §2, §3, §4, §5, §6, §7, §8

By IC50 is commonly meant the concentration that gives 50% inhibition. With `O=C(O)c1ccc2c(c1)nc(Nc1cc(Cl)cc(Cl)c1)c1ccsc12` [drawing 991], the IC50 in the assay on COLO 205 was 1.01 µM; in the assay with A375 it was 19.9 µM; in the assay on SK-OV-3 it was 11.7 µM; in the assay on H460, 12.3 µM; with PanC1, 20.3 µM; in the assay with MDAMB231, 3.89 µM. Besides, the IC50 in the assay on HL-60 was determined as 1.94 µM; with MCF-7, 13.7 µM; with Raji, 17.7 µM; in the assay with LNCaP, 6.23 µM.

Source of the values: patent US9062043B2, “Fused tricyclic compounds as serine-threonine protein kinase and PARP modulators” (SENHWA BIOSCIENCES, INC., priority 2006, dated 2015).
